Assay results as given in patent US20170121344A1 (Siga Technologies, Inc., priority 2009, published 2017).
Like-named read-outs stand apart in the source and are kept apart here.

Experiments:
DENV-1 = assay: Viral yield assay against DENV-1 in Vero cells; format: cell-based; settings: Dengue virus, DENV1, viral yield assay
How it was run: (§1)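 Progeny virus from compound-treated Vero monolayers infected at an MOI of 0.1 is collected after 48 h at 37° C and titered on Vero cells. DMSO serves as control.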

DENV-3 = assay: Viral yield assay against DENV-3 in Vero cells; format: cell-based; settings: Dengue virus, DENV3, viral yield assay
How it was run: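 Infect Vero cells with virus (MOI 0.1), add compound or DMSO, incubate at 37° C, collect progeny at 48 hours post infection, then titrate on Vero cells to obtain EC50.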

DENV-4 = assay: Viral yield assay against DENV-4 in Vero cells; format: cell-based; settings: Dengue virus, DENV4, viral yield assay
How it was run: as §1

[1] = system: Dengue-2 (Strain New Guinea C); assay: Viral yield assay against Dengue-2 in Vero cells; format: cell-based, Dengue virus; settings: Dengue virus, read-out: Activity (EC50 in μM) DENV-2
How it was run: as §1

[2] = DENV2, viral yield assay, Vero cells, MOI 0.1, 48 hours post infection

Row | Structure (SMILES) | EC50 (DENV-1) | EC50 (DENV-3) | EC50 (DENV-4) | EC50 [1, 2] | EC50 ([1]; DENV2, Vero, 48 h)
1 | CCCCSc1nc2ccc(NC(=O)c3sc4nc(-c5cccc(OC)c5)ccc4c3N)cc2s1 [Compound 570, 3-amino-N-(2-butylsulfanyl-1,3-benzo-thiazol-6-yl)-6-(3-methoxyphenyl)thieno [2,3-b]pyridine-2-carboxamide] | < 5 µM | < 5 µM | < 5 µM | < 5 µM | –
2 | COc1cccc(-c2ccc3c(N)c(C(=O)Nc4ccccc4SCC(C)C)sc3n2)c1 [Compound 571, 3-amino-N-(2-isobutylsulfanylphenyl)-6-(3-methoxyphenyl)thieno[2,3-b] pyridine-2-carboxamide] | < 5 µM | < 5 µM | < 5 µM | < 5 µM | –
3 | CCCCSc1ccccc1NC(=O)c1sc2nc(-c3cccc(OC)c3)ccc2c1N [Compound 572, 3-amino-N-(2-butylsulfanylphenyl)-6-(3-methoxyphenyl)thieno[2,3-b]pyridine-2-carboxamide] | < 5 µM | < 5 µM | < 5 µM | < 5 µM | –
4 | COc1ccc(-c2ccc3c(N)c(C(=O)Nc4ccc(C)c(Cl)c4)sc3n2)cc1OC [Compound 574, 3-amino-N-(3-chloro-4-mehtyl-phenyl)-6-(3,4-dimethoxyphenyl)thieno[2,3-b] pyridine-2-carboxamide] | < 5 µM | < 5 µM | < 5 µM | < 5 µM | –
5 | COc1ccc(-c2ccc3c(N)c(C(=O)Nc4cc(Cl)ccc4Cl)sc3n2)cc1OC [Compound 575, 3-amino-N-(2,5-dichlorophenyl)-6-(3,4-dimethoxyphenyl)thieno[2,3-b]pyridine-2-carboxamide] | < 5 µM | < 5 µM | < 5 µM | < 5 µM | –
6 | COc1ccc(-c2ccc3c(N)c(C(=O)Nc4ccc(C)cc4Br)sc3n2)cc1OC [Compound 576, 3-amino-N-(2-bromo-4-methyl-phenyl)-6-(3,4-dimethoxyphenyl)thieno[2,3-b] pyridine-2-carboxamide] | < 5 µM | < 5 µM | < 5 µM | < 5 µM | –
7 | COc1ccc(-c2ccc3c(N)c(C(=O)Nc4ccc(C)c(C)c4)sc3n2)cc1OC [Compound 577, 3-amino-6-(3,4-dimethoxyphenyl)-N-(3,4-dimethylphenyl)thieno[2,3-b] pyridine-2-carboxamide] | < 5 µM | < 5 µM | < 5 µM | < 5 µM | –
8 | COc1ccc(-c2ccc3c(N)c(C(=O)Nc4ccc(Br)c(C(F)(F)F)c4)sc3n2)cc1OC [Compound 583, 3-amino-N-[4-bromo-3-(trifluoromethyl)phenyl]-6-(3,4-dimethoxyphenyl)thieno [2,3-b]pyridin-2-carboxamide] | < 5 µM | < 5 µM | < 5 µM | < 5 µM | –
9 | Nc1c(C(=O)Nc2ccc3c(c2)OCO3)sc2nc(-c3ccc4c(c3)OCO4)ccc12 [Compound 591, 3-amino-N,6-bis(1,3-benzodioxol-5-yl) thieno[2,3-b]pyridine-2-carboxamide] | < 5 µM | < 5 µM | < 5 µM | – | < 5 µM
10 | Cc1ccc(NC(=O)c2sc3nc(-c4ccc5c(c4)OCO5)ccc3c2N)c(C)c1 [Compound 596, 3-amino-6-(1,3-benzodioxol-5-yl)-N-(2,4-dimethyphenyl)thieno[2,3-b]pyridine-2-carboxamide] | < 5 µM | < 5 µM | < 5 µM | < 5 µM | –
11 | Nc1c(C(=O)Nc2ccc(F)c(F)c2)sc2nc(-c3ccc4c(c3)OCO4)ccc12 [Compound 597, 3-amino-6-(1,3-benzodioxol-5-yl)-N-(3,4-difluorophenyl)thieno[2,3-b]pyridine-2-carboxamide] | < 5 µM | < 5 µM | < 5 µM | – | < 5 µM
12 | Nc1c(C(=O)Nc2ccc(Cl)cc2F)sc2nc(-c3ccc4c(c3)OCO4)ccc12 [Compound 598, 3-amino-6-(1,3-benzodioxol-5-yl)-N-(4-chloro-2-fluoro-phenyl)thieno[2,3-b] pyridine-2-carboxamide] | < 5 µM | < 5 µM | < 5 µM | < 5 µM | –
13 | COc1ccc(C(F)(F)F)cc1NC(=O)c1sc2nc(-c3ccc4c(c3)OCO4)ccc2c1N [Compound 599, 3-amino-6-(1,3-benzodioxol-5-yl)-N-[2-methoxy-5-(trifluoromethyl)phenyl]thieno [2,3-b]pyridine-2-carboxamide] | < 5 µM | < 5 µM | < 5 µM | < 5 µM | –
14 | Nc1c(C(=O)Nc2ccc(Cl)c(C(F)(F)F)c2)sc2nc(-c3ccc4c(c3)OCO4)ccc12 [Compound 600, 3-amino-6-(1,3-benzodioxol-5-yl)-N-[4-chloro-3-(trifluoromethyl)phenyl]thieno [2,3-b]pyridine-2-carboxamide] | < 5 µM | < 5 µM | < 5 µM | < 5 µM | –
15 | Nc1c(C(=O)Nc2cccc(F)c2)sc2nc(-c3ccc4c(c3)OCO4)ccc12 [Compound 602, 3-amino-6-(1,3-benzodioxol-5-yl)-N-(3-fluorophenyl)thieno[2,3-b]pyridine-2-carboxamide] | < 5 µM | < 5 µM | 5 to 25 µM | – | < 5 µM
16 | CCc1cccc(NC(=O)c2sc3nc(-c4ccc(F)cc4)ccc3c2N)c1 [Compound 609, 3-amino-N-(3-ethylphenyl)-6-(4-fluorophenyl)thieno[2,3-b]pyridine-2-carboxamide] | < 5 µM | 5 to 25 µM | 5 to 25 µM | < 5 µM | –
17 | Cc1ccc(NC(=O)c2sc3nc(-c4ccc(F)cc4)ccc3c2N)cc1F [Compound 612, 3-amino-N-(3-fluoro-4-methyl-phenyl)-6-(4-fluorophenyl)thieno[2,3-b]pyridine-2-carboxamide] | < 5 µM | < 5 µM | < 5 µM | < 5 µM | –
18 | Nc1c(C(=O)Nc2ccc(F)c(F)c2)sc2nc(-c3ccc(F)cc3)ccc12 [Compound 615, 3-amino-N-(3,4-difluorophenyl)-6-(4-fluorophenyl)thieno[2,3-b]pyridine-2-carboxamide] | < 5 µM | < 5 µM | < 5 µM | < 5 µM | –
19 | Nc1c(C(=O)Nc2ccc(Br)cc2F)sc2nc(-c3ccc(F)cc3)ccc12 [Compound 616, 3-amino-N-(4-bromo-2-fluoro-phenyl)-6-(4-fluorophenyl)thieno[2,3-b]pyridine-2-carboxamide] | < 5 µM | < 5 µM | < 5 µM | < 5 µM | –
20 | Nc1c(C(=O)Nc2ccc(Cl)cc2F)sc2nc(-c3ccc(F)cc3)ccc12 [Compound 617, 3-amino-N-(4-chloro-2-fluoro-phenyl)-6-(4-fluorophenyl)thieno[2,3-b]pyridine-2-carboxamide] | < 5 µM | < 5 µM | < 5 µM | < 5 µM | –
21 | Nc1c(C(=O)Nc2ccc(Cl)cc2)sc2nc(-c3ccc(F)cc3)ccc12 [Compound 620, 3-amino-N-(4-chlorophenyl)-6-(4-fluorophenyl)thieno[2,3-b]pyridine-2-carboxamide] | < 5 µM | < 5 µM | < 5 µM | < 5 µM | –
22 | CSc1ccc(NC(=O)c2sc3nc(-c4ccc(F)cc4)ccc3c2N)cc1 [Compound 625, 3-amino-6-(4-fluorophenyl)-N-(4-methylsulfanylphenyl)thieno[2,3-b] pyridine-2-carboxamide] | < 5 µM | < 5 µM | > 25 µM | < 5 µM | –
23 | COc1ccc(-c2ccc3c(N)c(C(=O)Nc4ccc(Br)cc4F)sc3n2)cc1OC [Compound 628, 3-amino-N-(4-bromo-2-fluoro-phenyl)-6-(3,4-dimethoxyphenyl)thieno[2,3-b] pyridine-2-carboxamide] | < 5 µM | < 5 µM | < 5 µM | < 5 µM | –
24 | Nc1c(C(=O)Nc2ccc(F)c(F)c2)sc2nc(-c3cc(Cl)ccc3Cl)ccc12 [Compound 630, 3-amino-6-(2,5-dichlorophenyl)-N-(3,4-difluorophenyl)thieno[2,3-b]pyridine-2-carboxamide] | < 5 µM | < 5 µM | < 5 µM | < 5 µM | –
25 | Nc1c(C(=O)Nc2ccccc2)sc2nc(-c3ccc(Cl)cc3)ccc12 [Compound 631, 3-amino-6-(4-chlorophenyl)-N-phenyl-thieno[2,3-b]pyridine-2-carboxamide] | < 5 µM | < 5 µM | < 5 µM | < 5 µM | –
26 | CCOc1ccc(NC(=O)c2sc3nc(-c4ccc(OC)c(OC)c4)ccc3c2N)cc1 [Compound 635, 3-amino-6-(3,4-dimethoxyphenyl)-N-(4-ethoxyphenyl)thieno[2,3-b]pyridine-2-carboxamide] | < 5 µM | > 25 µM | < 5 µM | < 5 µM | –
27 | Cc1ccc(NC(=O)c2sc3nc(-c4ccc(C)cc4)ccc3c2N)cc1 [Compound 636, 3-amino-N,6-bis(p-tolyl)thieno[2,3-b] pyridine-2-carboxamide] | < 5 µM | < 5 µM | < 5 µM | < 5 µM | –
28 | CCOC(=O)c1ccc(NC(=O)c2sc3nc(-c4ccc(C)cc4)ccc3c2N)cc1 [Compound 638, ethyl 4-[[3-amino-6-(p-tolyl)thieno [2,3-b]pyridine-2-carbonyl]amino] benzoate] | < 5 µM | < 5 µM | < 5 µM | < 5 µM | –
